MIC data for four molecules are collected here from ChEMBL document CHEMBL1153012, “Synthesis and antibacterial activity of novel 5-(4-methyl-1H-1,2,3-triazole) methyl oxazolidinones” (2009).

What all share (format): functional
Assay [1] deals with Staphylococcus aureus. Nature of the assay: Antibacterial activity against Staphylococcus aureus ATCC 25923 by agar dilution method.
Assay [2] relates to Staphylococcus aureus. Nature of the assay: Antibacterial activity against Staphylococcus aureus ATCC 25923 by agar dilution method in presence of human plasma. As to conditions: ATCC 25923, Plasma.
The subject of assay [3] is Staphylococcus aureus. Put plainly: Antibacterial activity against methicillin-susceptible Staphylococcus aureus by agar dilution method.
Assay [4] concerns Staphylococcus aureus. Put plainly: Antibacterial activity against methicillin-resistant Staphylococcus aureus by agar dilution method.
Assay [5] has as its system Staphylococcus. Put plainly: Antibacterial activity against methicillin-sensitive coagulase-negative Staphylococcus by agar dilution method.
Assay [6] has as its system Staphylococcus. Put plainly: Antibacterial activity against methicillin resistant coagulase-negative Staphylococcus by agar dilution method.
The test system of a further assay is Streptococcus pneumoniae. Put plainly: Antibacterial activity against Streptococcus pneumoniae by agar dilution method.
Assay [7] relates to Enterococcus. Nature of the assay: Antibacterial activity against vancomycin-sensitive Enterococcus by agar dilution method.
The test system of assay [8] is Enterococcus. Put plainly: Antibacterial activity against vancomycin-resistant Enterococcus by agar dilution method.
The test system of assay [9] is Haemophilus influenzae. Nature of the assay: Antibacterial activity against Haemophilus influenzae ATCC 49247 by agar dilution method.
The test system of assay [10] is Haemophilus influenzae. Nature of the assay: Antibacterial activity against Haemophilus influenzae isolate 280 by agar dilution method.
The subject of assay [11] is Haemophilus influenzae. Put plainly: Antibacterial activity against Haemophilus influenzae isolate 282 by agar dilution method.
Assay [12] deals with Haemophilus influenzae. Nature of the assay: Antibacterial activity against Haemophilus influenzae isolate 283 by agar dilution method.
Assay [13] relates to Haemophilus influenzae. Nature of the assay: Antibacterial activity against Haemophilus influenzae isolate 285 by agar dilution method.
Another assay deals with Moraxella catarrhalis. Nature of the assay: Antibacterial activity against Moraxella catarrhalis by agar dilution method.
A further assay deals with Escherichia coli. Put plainly: Antibacterial activity against Escherichia coli ATCC 25922 by agar dilution method.

The structures appear in SMILES notation. Converted amounts (≈) assume the structure as drawn.

With `CCCCCCC(=O)N1CCN(c2ccc(N3C[C@H](Cn4cc(C)nn4)OC3=O)cc2F)CC1`, the MIC against Staphylococcus aureus [1] is 8 µg/mL (≈ 16.9 µM); in the assay with Staphylococcus aureus [2], > 64 µg/mL; in the assay on Staphylococcus aureus [3], 8 µg/mL (≈ 16.9 µM); against Staphylococcus aureus [4] it was 8 µg/mL (≈ 16.9 µM); in the assay with Staphylococcus [5], 4 µg/mL (≈ 8.46 µM); with Staphylococcus [6] it was 8 µg/mL (≈ 16.9 µM). Also, the MIC in the assay with Streptococcus pneumoniae is 8 µg/mL (≈ 16.9 µM); against Enterococcus [7] it was 4 µg/mL (≈ 8.46 µM); in the assay on Enterococcus [8] it was 4 µg/mL (≈ 8.46 µM); in the assay on Haemophilus influenzae [9], > 64 µg/mL; in the assay on Haemophilus influenzae [10], > 64 µg/mL; with Haemophilus influenzae [11], > 64 µg/mL. Moreover, the MIC against Haemophilus influenzae [12] was > 64 µg/mL; against Haemophilus influenzae [13], > 64 µg/mL; against Moraxella catarrhalis it was 64 µg/mL (≈ 135 µM); in the assay with Escherichia coli, > 64 µg/mL.

As for `Cc1cn(C[C@H]2CN(c3ccc(N4CCN(C(=O)CC5CC6CCC5C6)CC4)c(F)c3)C(=O)O2)nn1` (some centres undefined), the MIC against Staphylococcus aureus [1] was 4 µg/mL (≈ 8.05 µM); in the assay with Staphylococcus aureus [2] it was > 64 µg/mL; in the assay with Staphylococcus aureus [3] it was 2 µg/mL (≈ 4.03 µM); against Staphylococcus aureus [4], 4 µg/mL (≈ 8.05 µM); against Staphylococcus [5], 2 µg/mL (≈ 4.03 µM); in the assay with Staphylococcus [6] it was 2 µg/mL (≈ 4.03 µM). Moreover, the MIC in the assay with Streptococcus pneumoniae is 16 µg/mL (≈ 32.2 µM); in the assay on Enterococcus [7] it was 2 µg/mL (≈ 4.03 µM); against Enterococcus [8], 2 µg/mL (≈ 4.03 µM); with Haemophilus influenzae [9], > 64 µg/mL; against Haemophilus influenzae [10], > 64 µg/mL; in the assay with Haemophilus influenzae [11] it was > 64 µg/mL. For the same molecule, the MIC against Haemophilus influenzae [12] is > 64 µg/mL; against Haemophilus influenzae [13], > 64 µg/mL; against Moraxella catarrhalis it was 64 µg/mL (≈ 129 µM); in the assay with Escherichia coli, > 64 µg/mL.

Consider `Cc1cn(C[C@H]2CN(c3ccc(N4CCN(C(=O)/C=C/c5ccccc5)CC4)c(F)c3)C(=O)O2)nn1`, for which the MIC with Staphylococcus aureus [1] was 16 µg/mL (≈ 32.6 µM); with Staphylococcus aureus [2] it was > 64 µg/mL; with Staphylococcus aureus [3] it was 16 µg/mL (≈ 32.6 µM); with Staphylococcus aureus [4] it was 8 µg/mL (≈ 16.3 µM); against Staphylococcus [5], 8 µg/mL (≈ 16.3 µM); in the assay with Staphylococcus [6] it was 8 µg/mL (≈ 16.3 µM). Moreover, the MIC against Streptococcus pneumoniae was 8 µg/mL (≈ 16.3 µM); against Enterococcus [7] it was 8 µg/mL (≈ 16.3 µM); against Enterococcus [8], 8 µg/mL (≈ 16.3 µM); in the assay with Haemophilus influenzae [9], > 64 µg/mL; with Haemophilus influenzae [10], > 64 µg/mL; against Haemophilus influenzae [11], > 64 µg/mL. The MIC in the assay with Haemophilus influenzae [12] is > 64 µg/mL; against Haemophilus influenzae [13], > 64 µg/mL; against Moraxella catarrhalis, 64 µg/mL (≈ 130 µM); in the assay with Escherichia coli it was > 64 µg/mL.

Regarding `Cc1cn(C[C@H]2CN(c3ccc(N4CCNCC4)c(F)c3)C(=O)O2)nn1.O=C(O)C(F)(F)F`, the MIC was found to be 4 µg/mL against Staphylococcus aureus [1]; 32 µg/mL with Staphylococcus aureus [2]; 4 µg/mL in the assay on Staphylococcus aureus [3]; 4 µg/mL against Staphylococcus aureus [4]; 4 µg/mL in the assay on Staphylococcus [5]; 4 µg/mL against Staphylococcus [6]. Moreover, the MIC in the assay with Streptococcus pneumoniae came to 2 µg/mL; against Enterococcus [7], 4 µg/mL; with Enterococcus [8], 8 µg/mL; in the assay on Haemophilus influenzae [9], 32 µg/mL; against Haemophilus influenzae [10] it was 32 µg/mL; in the assay with Haemophilus influenzae [11], 32 µg/mL. The MIC is 32 µg/mL against Haemophilus influenzae [12], 32 µg/mL with Haemophilus influenzae [13], 16 µg/mL against Moraxella catarrhalis and > 64 µg/mL against Escherichia coli.
